# Reference: patent US6642254B2, “Heterocyclic compounds and their therapeutic use” (Darwin Discovery, Ltd., priority 1998, dated 2003)
# Like-named read-outs stand apart in the source and are kept apart here.
# How the values were obtained:
# [1] = Pharmacokinetic profile in cannulated rats (oral dosing); format: in vivo; conditions: rat, oral dose 3 mg/kg, plasma
# Description: The pharmacokinetic profile of the compounds of the invention is determined in rats cannulated in the right carotid artery for blood collection. For iv dosing, the compound is prepared in a suitable formulation, for example 10% v/v DMSO, 50% v/v PEG 400 in water, and dosing is carried out by cannulation of the left jugular vein. Samples are collected at 5 min, 0.5, 1, 2, 4, 6 and 8 hours post-dosing. For oral dosing, the compound is prepared in a suitable formulation such as 0.4% w/v methylcellulose in water Samples are collected at 0.5, 1, 2, 4, 6 and 8 hours post-dosing. In some cases, samples are also collected at 12 hours post-dosing. Plasma is obtained by centrifugation of the each blood sample and drug concentration is then determined using standard methods, such as liquid chromatography-mass spectrometry following protein precipitation.
# Results are tabulated below, and are also shown in the accompanying drawing. The drawing is a graph of PK data following oral dosing in the rat; PC (plasma concentration; ng/ml) is plotted against t (time; hours). ▪ represents the compound of Example 8, and · the free base. The superiority of the novel compound is evident.
# [2] = Solubility in water at pH 7; format: physicochemical
# Description: The solubility of the compound of Example 8, in water at pH 7, was 0.2 mg/ml. The solubility of the corresponding free base, under the same conditions, was 0.002 mg/ml.
AUC0-last (po) [1] [ng·h/mL],Cmax (po) [1] [ng/mL],t1/2 (po) [1] [h],solubility [2] [µg/mL],AUC(0-t) ([1]; read-out: AUC0-last (po)) [ng·h/mL],half-life ([1]; read-out: t1/2 (po) (converted)) [h],"solubility ([2]; aqueous buffer, read-out: solubility) [µg/mL]",SMILES
30169,3054,20,200,,,,"COc1ccc(C(=O)Nc2c(Cl)c[n+]([O-])cc2Cl)c2ccc(C(F)(F)F)nc12 [Example 8, 8-Methoxy-2-trifluoromethylquinoline-5-carboxylic Acid (3,5-dichloro-1-oxypyridin-4-yl)amide]"
,1008,,,6860,4.5,2,"COc1ccc(C(=O)Nc2c(Cl)cncc2Cl)c2ccc(C(F)(F)F)nc12 [Free base, 8-Methoxy-2-trifluoromethylquinoline-5-carboxylic acid (3,5-dichloropyridin-4-yl)amide]"
